Assay results as given in PMC3103472, “The p75 neurotrophin receptor localization in blood-CSF barrier: expression in choroid plexus epithelium” (BMC Neuroscience, 2011).

Legend:
p75NTR = assay: Proteolytic processing of p75NTR (Western blot, immunofluorescence, cell fractionation); type: cell-based, rat
Procedure: Primary cultures from choroid plexus epithelial cells from P3-P5 Wistar rats were prepared as described previously. Cells were grown to confluence for 5-7 days and serum starved for 2 hours. Cultures were maintained at 37°C in a humidified atmosphere containing 5% CO2, and cultivated for 7 days prior to experimentation. Human analogue peptides corresponding to Aβ1-40 and scrambled Aβ1-40 (AnaSpec, Inc.) were added. […] For ICD p75NTR detection primary cultures cells proteasome inhibitor epoxomycin (1 μM) (Sigma) was applied 1.5 hours prior to Aβ treatment.
For Western blot analysis cultures cells were washed once with ice-cold PBS and lysed in PIK buffer (150 mM NaCl, 20 mM TrisHCl pH 7.4, 1% NP40 and protease inhibitors: 1 μg/mL aprotinin, 1 μg/mL leupeptin and 1 μg/mL phenylmethylsulfonyl fluoride, PMSF). For cell fractionation cells were lysed with C buffer (10 mM HEPES, 60 mM KCl, 1 mM EDTA, 0.075% Triton X100, 1 mM DTT with protease inhibitors. The pellet nuclei was obtained by centrifugation 325 g, 4 minutes and resuspended in NB buffer (20 mM TrisHCl pH 8, 420 mM NaCl, 15 mM MgCl2, 0.2 mM EDTA, 25% Glicerol and protease inhibitors). Thereafter, the nuclei supernatant were obtained after centrifugation 9000 g, 10 minutes. After running the samples in acrylamide gels, proteins were transferred (immobilon, Bio-Rad) and membranes were incubated with the corresponding primary at 4°C overnight. Afterwards, membranes were washed and incubated with secondary antibodies. Membranes were washed several times with Tween-TBS and developed with ECL plus (Amersham). Western blot membranes were re-blotted with unrelated proteins (α-actin) as an internal standard and normalized for protein load. Densitometric analysis was performed using ImageJ software (NIH Image). A representative blot is shown from a total of at lest three independent experiments.
Immunocytochemistry was performed with primary cultures from choroid plexus plated on 20 mm coverslips and fixed. Rat and human choroid plexus were also fixed with 4% paraformaldehyde and processed for histochemical analysis. […]

[1] = tested on: choroid plexus epithelial cells; assay: Cell death quantification with Cell Death Detection ELISAPLUS kit; type: cell-based, rat; conditions: primary choroid plexus epithelial cells, Aβ40 5 mg/ml, 24 h, ELISA PLUS kit
Procedure: Primary cultures from choroid plexus epithelial cells from P3-P5 Wistar rats were prepared as described previously. Cells were grown to confluence for 5-7 days and serum starved for 2 hours. Cultures were maintained at 37°C in a humidified atmosphere containing 5% CO2, and cultivated for 7 days prior to experimentation. Human analogue peptides corresponding to Aβ1-40 and scrambled Aβ1-40 (AnaSpec, Inc.) were added. 24 hours after stimulation, cells were either fixed for immunocytochemical analysis or homogenized for immunoblot determination. For ICD p75NTR detection primary cultures cells proteasome inhibitor epoxomycin (1 μM) (Sigma) was applied 1.5 hours prior to Aβ treatment.
For cell death quantification, after incubation for 24 h with Aβ40 (5 mg/ml), choroid plexus epithelial cells in vitro were measured with Cell Death Detection ELISAPLUS kit (Roche Diagnostics) as described previously.

Aβ1-40: Human analogue peptides corresponding to Aβ1-40 (AnaSpec, Inc.)
release of p75NTR-ICD fragment (19 KDa) (p75NTR; Aβ1-40 2.5 μg/mL for 15, 30 and 60 minutes, proteasome inhibitor pre-treatment, Western blot with antibody 9992): induced a release of ICD fragment at 15 and 30 minutes
nuclear accumulation of p75NTR-ICD, immunofluorescence (p75NTR; Aβ1-40 2.5 μg/mL, 60 minutes, proteasome inhibitor 1.5 hours before, confocal microscopy): considerable accumulation of p75NTR-ICD occurred in the majority of nuclei
p75NTR-ICD 19 KDa band in nuclear extracts (p75NTR; Aβ1-40 for 15, 30 and 60 minutes, nuclear and cytoplasmic extracts, Western blot with antibody 9992): enriched in nuclear extracts
increase of cell death upon control cells [1]: 29%
